Assay [1] concerns the target T1, PDZ-domain polypeptide (GST/PDZ fusion protein) (Homo sapiens, UniProt Q6P0Q8).
T1 construct: made in house; host or cells: E. coli (DH5alpha, BL21 or JM109)
Nature of the assay: Apparent affinity (Kd) by titration of PL peptide in the G assay. The format is binding. Particulars: read-out: Peptide Optimal Conc (Kd by titration of the PL peptide). The method, boiled down: (§1)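 A fixed concentration of GST/PDZ fusion protein, 5 ug/ml by default, was mixed in solution with increasing labeled PL peptide (e.g. 0.1 uM-1 mM). Reaction times ranged from 10 minutes to 2 days at 4-37° C. Complexes were separated from free peptide and detected via the label as in the G assay, apparent affinity coming from the saturating concentration.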

Assay [2] concerns the target T2, PDZ-domain polypeptide (GST/PDZ fusion protein) (Homo sapiens, UniProt Q96JH8).
T2 construct: made in house; host or cells: E. coli (DH5alpha, BL21 or JM109)
T2 sequence (Q96JH8 1-1075): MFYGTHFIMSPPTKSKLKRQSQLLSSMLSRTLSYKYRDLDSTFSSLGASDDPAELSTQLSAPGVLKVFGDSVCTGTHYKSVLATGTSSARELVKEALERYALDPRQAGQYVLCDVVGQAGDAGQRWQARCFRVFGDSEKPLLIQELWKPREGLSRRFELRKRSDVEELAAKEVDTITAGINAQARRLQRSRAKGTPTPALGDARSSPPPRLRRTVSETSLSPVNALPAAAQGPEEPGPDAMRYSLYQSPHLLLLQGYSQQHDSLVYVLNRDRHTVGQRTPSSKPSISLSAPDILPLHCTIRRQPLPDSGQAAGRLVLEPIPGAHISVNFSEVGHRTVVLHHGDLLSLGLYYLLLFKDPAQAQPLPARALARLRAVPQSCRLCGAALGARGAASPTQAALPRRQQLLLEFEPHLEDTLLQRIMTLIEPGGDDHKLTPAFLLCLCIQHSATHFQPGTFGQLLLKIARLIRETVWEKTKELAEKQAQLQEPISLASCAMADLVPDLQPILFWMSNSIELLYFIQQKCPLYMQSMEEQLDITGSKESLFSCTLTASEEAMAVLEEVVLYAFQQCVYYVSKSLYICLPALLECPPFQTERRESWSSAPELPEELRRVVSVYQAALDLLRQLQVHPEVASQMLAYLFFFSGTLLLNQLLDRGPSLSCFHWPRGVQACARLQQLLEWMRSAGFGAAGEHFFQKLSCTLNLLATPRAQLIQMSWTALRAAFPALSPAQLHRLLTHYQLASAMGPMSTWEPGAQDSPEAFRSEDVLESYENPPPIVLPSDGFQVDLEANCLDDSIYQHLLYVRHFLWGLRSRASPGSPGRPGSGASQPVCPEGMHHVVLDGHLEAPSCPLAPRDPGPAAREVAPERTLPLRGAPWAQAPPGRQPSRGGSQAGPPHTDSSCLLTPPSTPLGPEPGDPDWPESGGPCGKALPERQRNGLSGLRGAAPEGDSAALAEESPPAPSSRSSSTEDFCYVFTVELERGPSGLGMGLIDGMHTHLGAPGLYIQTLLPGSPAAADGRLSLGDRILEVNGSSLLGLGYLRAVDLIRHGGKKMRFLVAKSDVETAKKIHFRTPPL
The assay is described as above. The format is binding. Particulars: PDZ FLJ 10324, PDZ Domain 1. Put shortly: as §1

Read-outs that look alike come from different tables or passages of the source. Peptide text beside a SMILES is read from it. * marks the point of attachment. Biotin = O=C1N[C@H]2[C@H](CS[C@H]2CCCCC(=O)*)N1

T1 sequence (Q6P0Q8 whole entry, the tested form may be a part): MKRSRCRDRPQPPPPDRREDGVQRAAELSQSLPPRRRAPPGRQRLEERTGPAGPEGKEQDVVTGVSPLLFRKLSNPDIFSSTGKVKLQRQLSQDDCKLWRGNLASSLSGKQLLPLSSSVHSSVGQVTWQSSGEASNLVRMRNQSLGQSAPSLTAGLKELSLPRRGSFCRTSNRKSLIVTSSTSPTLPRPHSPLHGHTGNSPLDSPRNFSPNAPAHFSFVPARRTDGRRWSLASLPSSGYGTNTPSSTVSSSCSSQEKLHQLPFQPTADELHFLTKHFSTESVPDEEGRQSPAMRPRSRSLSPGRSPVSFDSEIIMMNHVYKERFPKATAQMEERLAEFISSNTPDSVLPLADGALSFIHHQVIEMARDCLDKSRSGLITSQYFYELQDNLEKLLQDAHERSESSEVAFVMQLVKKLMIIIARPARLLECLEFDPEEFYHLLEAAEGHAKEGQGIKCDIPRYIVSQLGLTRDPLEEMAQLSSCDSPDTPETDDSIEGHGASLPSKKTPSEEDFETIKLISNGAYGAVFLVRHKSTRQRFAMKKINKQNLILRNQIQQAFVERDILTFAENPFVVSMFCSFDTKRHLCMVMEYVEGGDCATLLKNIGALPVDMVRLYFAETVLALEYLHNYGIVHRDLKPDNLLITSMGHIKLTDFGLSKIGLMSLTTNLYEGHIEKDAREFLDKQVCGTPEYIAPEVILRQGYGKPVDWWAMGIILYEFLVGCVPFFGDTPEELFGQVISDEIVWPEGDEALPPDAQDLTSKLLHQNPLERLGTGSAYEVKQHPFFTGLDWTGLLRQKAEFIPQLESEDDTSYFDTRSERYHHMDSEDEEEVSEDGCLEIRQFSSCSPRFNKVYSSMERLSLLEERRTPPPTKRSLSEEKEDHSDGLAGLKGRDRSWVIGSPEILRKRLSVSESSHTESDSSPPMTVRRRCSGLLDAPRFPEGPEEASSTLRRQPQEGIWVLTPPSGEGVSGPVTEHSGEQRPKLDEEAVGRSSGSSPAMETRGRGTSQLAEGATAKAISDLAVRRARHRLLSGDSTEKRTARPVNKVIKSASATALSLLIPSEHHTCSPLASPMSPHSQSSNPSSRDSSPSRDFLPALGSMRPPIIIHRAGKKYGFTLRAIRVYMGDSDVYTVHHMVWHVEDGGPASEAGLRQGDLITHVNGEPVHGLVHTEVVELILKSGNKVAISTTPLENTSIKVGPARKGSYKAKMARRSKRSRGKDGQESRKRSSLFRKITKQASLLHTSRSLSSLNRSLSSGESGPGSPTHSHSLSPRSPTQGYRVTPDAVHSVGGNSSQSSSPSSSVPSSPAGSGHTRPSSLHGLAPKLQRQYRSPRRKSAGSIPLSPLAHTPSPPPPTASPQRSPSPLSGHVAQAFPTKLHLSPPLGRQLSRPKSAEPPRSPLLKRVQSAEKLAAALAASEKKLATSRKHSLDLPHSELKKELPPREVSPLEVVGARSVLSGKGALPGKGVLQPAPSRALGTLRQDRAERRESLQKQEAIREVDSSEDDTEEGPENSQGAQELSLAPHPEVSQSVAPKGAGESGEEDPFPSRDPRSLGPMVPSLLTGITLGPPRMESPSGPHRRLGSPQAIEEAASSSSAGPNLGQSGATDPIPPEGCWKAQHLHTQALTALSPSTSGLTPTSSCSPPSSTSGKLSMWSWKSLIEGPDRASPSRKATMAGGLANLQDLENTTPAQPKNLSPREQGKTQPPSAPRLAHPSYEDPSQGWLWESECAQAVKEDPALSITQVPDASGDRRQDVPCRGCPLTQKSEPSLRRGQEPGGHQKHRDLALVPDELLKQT

As to `CC(C)C[C@H](NC(=O)[C@H](Cc1c[nH]c2ccccc12)NC(=O)[C@H](Cc1c[nH]cn1)NC(=O)[C@H](CCCNC(=N)N)NC(=O)[C@H](CC(C)C)NC(=O)[C@@H](NC(=O)[C@H](Cc1ccccc1)NC(=O)[C@H](CCC(N)=O)NC(=O)[C@H](CCCNC(=N)N)NC(=O)[C@@H](NC(=O)[C@H](CCC(=O)O)NC(=O)CNC(=O)[C@H](CCCNC(=N)N)NC(=O)[C@H](CC(=O)O)NC(=O)[C@@H](NC(=O)[C@H](CC(C)C)NC(=O)[C@H](CCC(=O)O)NC(=O)[C@H](CCCNC(=N)N)NC(=O)CCCC[C@@H]1SC[C@@H]2NC(=O)N[C@@H]21)C(C)C)C(C)C)[C@@H](C)O)C(=O)N[C@@H](CCCCN)C(=O)N[C@H](C(=O)O)C(C)C` [Dopamine transporter (Na+-dependent)] (Biotin-RELVDRGEVRQFTLRHWLKV-OH; C-terminus assumed), the Kd in assay [1] (PDZ KIAA0807(S), PDZ Domain 1) is 400 nM; in assay [1] (PDZ KIAA807), 400 nM; in assay [2] (read-out: Peptide Optimal Conc (Kd by titration of the PL peptide)), 300 nM.

For `CC[C@H](C)[C@H](NC(=O)[C@H](CCCCN)NC(=O)[C@@H](NC(=O)[C@H](CO)NC(=O)[C@@H]1CCCN1C(=O)[C@H](Cc1ccccc1)NC(=O)[C@@H](NC(=O)[C@@H](NC(=O)[C@H](CCCNC(=N)N)NC(=O)[C@H](CCC(=O)O)NC(=O)[C@H](CC(C)C)NC(=O)[C@H](CC(C)C)NC(=O)[C@H](CC(C)C)NC(=O)[C@@H](NC(=O)CNC(=O)[C@@H](NC(=O)CCCC[C@@H]1SC[C@@H]2NC(=O)N[C@@H]21)C(C)C)[C@@H](C)O)C(C)C)[C@@H](C)CC)C(C)C)C(=O)N[C@@H](C)C(=O)N[C@H](C(=O)N[C@@H](CC(C)C)C(=O)N[C@H](C(=O)O)C(C)C)[C@@H](C)O` [Adenovirus E4 Type9], the Kd was 200 nM in assay [1] (PDZ KIAA0807(S), PDZ Domain 1, Protein Optimal Conc 5) and 100 nM in assay [2] (Protein Optimal Conc 5, read-out: Peptide Optimal Conc (Kd by titration of the PL peptide)).

For `CC[C@H](C)[C@H](NC(=O)[C@H](C)NC(=O)[C@H](CC(C)C)NC(=O)[C@H](Cc1c[nH]c2ccccc12)NC(=O)[C@H](Cc1c[nH]cn1)NC(=O)[C@H](CCC(N)=O)NC(=O)[C@H](CC(C)C)NC(=O)[C@H](CCC(N)=O)NC(=O)[C@H](Cc1ccccc1)NC(=O)[C@H](CCC(N)=O)NC(=O)[C@H](CCCNC(=N)N)NC(=O)[C@@H](NC(=O)[C@H](CC(=O)O)NC(=O)[C@H](CCCNC(=N)N)NC(=O)[C@H](CCC(N)=O)NC(=O)[C@H](C)NC(=O)[C@@H](NC(=O)[C@H](CC(C)C)NC(=O)[C@H](Cc1c[nH]cn1)NC(=O)[C@H](Cc1c[nH]cn1)NC(=O)CCCC[C@@H]1SC[C@@H]2NC(=O)N[C@@H]21)C(C)C)[C@@H](C)CC)C(=O)O` [noradrenaline transporter] (Biotin-HHLVAQRDIRQFQLQHWLAI-OH; C-terminus assumed), the Kd in assay [2] (Peptide Optimal Conc (Kd by titration of the PL peptide)) turned out to be 600 nM.
